In patent publication US10807971B2, “Pyrrolidinone compounds” (Eli Lilly and Company, priority 2016, dated 2020):
Where a name gives a salt, the structure may show the parent alone.

Columns and labels:
obese DIO mice = assay: Therapeutic weight loss effect in HFD feeding induced obese mouse model (DIO mice); assay type: in vivo; details: day 14
Description: To determine the therapeutic weight loss effects and improvement of metabolic parameters, the compound from the invention is tested in a HFD feeding induced obese mouse model (DIO mice). In this model, C57/B16J male mouse is fed with the 60% HFD (D12492i, Research Diets) for 16˜28 weeks to establish obesity with body weight reaching around 50 g. The mice will gradually increase their body weight to about 50 g and maintain that weight in this obese state.

[1] = molecular target: Human DPP-4 ((39-766)-His) (Homo sapiens (Human), UniProt P27487); assay: Enzymatic activity assay of DPP-4 (Gly-Pro-AMC fluorescence); assay type: biochemical; details: (SD, n), read-out: hDPP-4 IC50
Description: (§1) Inhibition of the catalytic activity of human and mouse DPP-4 by the compound in the present invention is monitored by the formation of product fluorescence AMC from substrate Gly-Pro-AMC (Sigma, G2761) on an Envision plate reader. […] The IC50 value is calculated typically from a 10-point dose titration curve using the 4-parameter logistic equation.

[2] = molecular target: mouse DPP-4 ((29-760)-His) (Mus musculus (Mouse), UniProt P28843); assay: as above; assay type: biochemical; details: (SD, n), read-out: mDPP-4 IC50
Description: as §1

Sequence of mouse DPP-4 ((29-760)-His) (P28843 29-760): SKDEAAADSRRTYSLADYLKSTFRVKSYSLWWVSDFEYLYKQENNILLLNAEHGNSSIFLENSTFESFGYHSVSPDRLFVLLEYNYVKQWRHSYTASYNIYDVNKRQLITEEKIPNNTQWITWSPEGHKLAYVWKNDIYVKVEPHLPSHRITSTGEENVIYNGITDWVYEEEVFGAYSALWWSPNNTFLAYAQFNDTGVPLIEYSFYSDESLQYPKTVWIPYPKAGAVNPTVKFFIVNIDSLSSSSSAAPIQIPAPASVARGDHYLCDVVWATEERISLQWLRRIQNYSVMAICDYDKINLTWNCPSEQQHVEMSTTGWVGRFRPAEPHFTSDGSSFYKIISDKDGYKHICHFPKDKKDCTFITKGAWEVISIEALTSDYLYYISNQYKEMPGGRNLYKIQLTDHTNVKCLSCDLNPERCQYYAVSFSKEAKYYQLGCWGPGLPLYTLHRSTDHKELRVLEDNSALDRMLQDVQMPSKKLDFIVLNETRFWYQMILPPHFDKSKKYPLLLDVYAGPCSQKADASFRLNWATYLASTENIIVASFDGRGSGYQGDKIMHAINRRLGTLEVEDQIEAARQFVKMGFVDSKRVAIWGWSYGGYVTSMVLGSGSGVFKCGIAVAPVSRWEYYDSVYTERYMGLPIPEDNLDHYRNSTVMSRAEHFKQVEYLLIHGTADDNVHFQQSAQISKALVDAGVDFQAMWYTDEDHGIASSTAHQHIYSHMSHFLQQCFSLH
Sequence of Human DPP-4 ((39-766)-His) (P27487 39-766): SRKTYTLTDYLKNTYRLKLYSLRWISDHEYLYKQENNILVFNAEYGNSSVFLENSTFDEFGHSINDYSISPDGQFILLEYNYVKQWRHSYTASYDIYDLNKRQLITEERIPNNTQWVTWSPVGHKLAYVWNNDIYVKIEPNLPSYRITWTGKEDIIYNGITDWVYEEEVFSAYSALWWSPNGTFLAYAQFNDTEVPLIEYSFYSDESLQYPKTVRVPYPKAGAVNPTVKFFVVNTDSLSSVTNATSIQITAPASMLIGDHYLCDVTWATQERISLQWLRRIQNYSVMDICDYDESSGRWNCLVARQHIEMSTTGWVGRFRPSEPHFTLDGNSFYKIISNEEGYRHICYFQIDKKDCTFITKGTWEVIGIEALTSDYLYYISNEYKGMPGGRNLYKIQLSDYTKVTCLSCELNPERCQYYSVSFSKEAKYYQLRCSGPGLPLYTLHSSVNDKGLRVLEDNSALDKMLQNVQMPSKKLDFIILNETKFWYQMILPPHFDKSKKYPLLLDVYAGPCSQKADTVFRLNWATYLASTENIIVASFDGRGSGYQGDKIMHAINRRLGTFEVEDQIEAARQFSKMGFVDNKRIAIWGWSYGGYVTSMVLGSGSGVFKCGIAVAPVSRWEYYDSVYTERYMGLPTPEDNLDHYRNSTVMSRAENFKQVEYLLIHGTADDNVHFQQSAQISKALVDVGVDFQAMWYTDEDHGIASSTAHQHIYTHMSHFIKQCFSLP

SMILES: Cl.N[C@H]1C[C@@H](n2cc(N3CCC(O)(C(=O)NCc4cc(Cl)cc(Cl)c4F)C3=O)cn2)CO[C@@H]1c1cc(F)ccc1F (single isomer, unassigned; isomer 1) [Example 7]
- weight loss compared to the vehicle group (obese DIO mice; oral 40 mg/kg once daily): about 4.8%

SMILES: N[C@H]1C[C@@H](n2ncc(N3CCC(O)(C(=O)NCc4cc(Cl)cc(Cl)c4F)C3=O)n2)CO[C@@H]1c1cc(F)ccc1F (single isomer, unassigned; isomer 1) [Example 11, hydrochloride]
- IC50 [1]: < 1.52 nM
- IC50 [2]: < 1.52 nM

SMILES: Cl.N[C@H]1C[C@@H](N2Cc3ccc(N4CCC(O)(C(=O)NCc5cc(F)cc(F)c5F)C4=O)cc3C2)CO[C@@H]1c1cc(F)ccc1F (single isomer, unassigned; isomer 1) [Example 1]
- weight loss compared to the vehicle group (obese DIO mice; oral 20 mg/kg once daily): about 8.9%
